According to US20180360091A1, “NUTRITIONAL COMPOSITIONS AND INFANT FORMULAS TO PROMOTE MYELINATION IN THE BRAIN” (NESTEC S.A., priority 2015, published 2018):

test system: children up to 5 years of age; assay: Cross-sectional correlation (GLM) of formula nutrient composition with brain myelination; type: in vivo, human; conditions: 5 most used formulas; voxel-wise correlations, p<0.05 corrected; inter-variable correlation threshold 0.9
Experimental: MRI brain scans of infants and children between 0 and 5 years were acquired using a white matter imaging technique. This technique provides a quantitative measure, the Myelin Water Fraction (MWF), which is a surrogate marker of myelin content. When mapped as a function of time across early childhood, myelination trajectories can be generated.
Infant formula composition: six infant formulas fed to infants participating in study were analyzed for their composition/level of myelin-relevant nutrients.
Each infant was scanned using the mcDESPOT (multicomponent Driven Equilibrium Single Pulse Observation of T1 and T2) white matter imaging technique Deoni et al. (Magn. Reson. Med. 2008, 60:1372-1387), which provides a quantitative measure of the myelin water fraction (MWF) at each imaging point throughout the brain. All infants were scanned during natural (i.e. non-sedated) sleep using acoustically-muffled mcDESPOT imaging protocols. Total imaging times ranged from 19 minutes for the youngest toddlers to 24 minutes for the older 4 year-old children.
Following image alignment, non-brain signal removal, and correction for main and transmit magnetic field (B0 and B1) inhomogeneities, a three-pool signal model (comprising the myelin-associated water; intra-extra axonal water; and a non-exchanging free-water pool) was fit to the mcDESPOT data to derive voxel-wise MWF maps.
Each child's map was then non-linearly aligned to a study specific template. White matter masks, corresponding to 5 bilateral regions (frontal, temporal, occipital, parietal, and cerebellar WM) as well as the body, genu, and splenium of the corpus callosum were created from common databases, registered to the common template, and superimposed onto each child's MWF map. Mean values for each region were then determined for each child and used for subsequent developmental analysis and trajectory modeling.
From the cohort described above, children up to 5 years of age that were fed different infant formulas during infancy were included in a large correlation analysis to examine the relationship between formula nutrient composition and brain myelination. The 5 most frequently used formulas in that cohort were analyzed for their nutritional composition. A single general linear model (GLM) was constructed that modeled all quantified nutrients, sphingomyelin, and child age. Voxel-wise correlations were calculated with significance defined as p<0.05 corrected for type 1 error using a cluster based correction approach.
To reduce the number of variables in the model, we examined the inter-variable correlation.

Compound | Nutritional driver for myelination in the final general linear model
C[N+](C)(C)CCO [Choline] | identified drivers
Zinc | identified drivers
phosphatidylcholine | nutritional drivers for myelination
phosphatidyinositol | nutritional drivers for myelination
Nc1nc2ncc(CNc3ccc(C(=O)N[C@@H](CCC(=O)O)C(=O)O)cc3)nc2c(=O)[nH]1 [Folic Acid, folic acid] | identified drivers
CCCCC/C=C\C/C=C\C/C=C\C/C=C\CCCC(=O)O [ARA, arachidonic acid] | identified drivers
[P] [Phosphorus] | identified drivers
Iron | identified drivers
Vitamin B12 | identified drivers
sphingomyelin | nutritional drivers for myelination
[Mg] [Magnesium] | identified drivers
[Ca] [Calcium] | identified drivers

same assay, conditions: in particular cerebellum, internal capsule, visual cortex, frontal lobe

Compound | Association with myelination (myelin water fraction) over time in the brain
sphingomyelin | significant association with myelination
